From patent US4849410A, “Pseudopterosin and synthetic derivatives thereof” (The Regents of the University of California, priority 1987, dated 1989)
pIC50: −log10 of the molar value.

Assays:
sea urchin sperm = experiment: Sperm Motility Assay; type: cell-based; conditions: 16 microgram/ml (10^-5 m)
Description: Male sea urchins are induced to spawn by injection of 0.5M KCl into the coelomic cavity. Sperm is collected via a pasteur pipette and stored in a test tube on ice. One drop of undiluted sperm is added to 25 ml of filtered fresh seawater, then 1.0 ml volumes of this solution are immediately added to test tubes containing 10 microliter test solution. Aliquots of sperm from each tube are observed microscopically for motility at a time two minutes after addition of sperm to test solution.
The vheicle or carrier for the compounds used in the inflammatory and analgesic assays was as follows; For the mouse ear inflammatory assay, the vehicle was acetone. Controls received 25 microliters of acetone. Test compounds were applied to the experimental animals in 25 microliter volumes. For the sperm motility and fertilized sea urchin egg assays, the compounds were dissolved in 10 microliters undenatured ethanol.

B16 melanoma = experiment: Activity in mice bearing ip B16 melanoma; type: in vivo, female B6D2F1 mice
Description: Compound I was also evaluated for activity against solid tumors as follows:
One-half ml of a 10 percent (v:v) brei of tumor cells prepared from solid B16 melanoma or M5076 reticulum cell sarcoma was implanted ip in female B6D2F1 mice which were randomized to treatment groups of 8 animals each. Treatment was initiated 24 hours after tumer inoculation and was continued daily for 10 days (cisplatin was administered q4Dx4 on Days 1, 5, 9 and 13). Mice were monitored daily for 60 days, and the median day of death was determined compared to three groups of untreated controls to provide percent increase in lifespan (ILS). ILS values of greater than or equal to 50 percent represent biologically significant antitumor effects. Cisplatin was curative in M5076 with 6/8 tumor-free survivors on Day 60 at the top dose level.

P388 leukemia = experiment: Evaluation in mice bearing ip P388 leukemia; type: in vivo, female B6D2F1 mice; conditions: for Increase to Lifespan / Median Survival Time / Weight Change Day 5 / Weight Change Day 9: Days 1-5
Description: Compound I was also evaluated in mice bearing P388 Leukemia as follows:
Compound I was administered to the mice as a solution by first dissolving it in N,N-dimethylacetamide, adding an equal volume of Cremophor EL and then 8 volumes of water. The drug concentration was such that the desired dose was delivered in a volume of 0.5 ml per mouse. Dilutions from the highest dose in a dose-response study were made by the addition of water so that organic component of the formulation decreased with dose reduction; the drug remained in solution.
10^6 P388 leukemia cells were implanted intraperitoneal in female B6D2F1 mice which were randomized to treatment groups of six animals each. Treatment was initiated 24 hours after tumor implantation and was continued daily for five days (Cisplatin was administered on Days 1 and 5 for the Group 1 mice). Mice were weighted as groups on Days 1, 5 and 9 to provide an indication of drug toxicity. Mice were monitored for survival daily for 45 days, and the median day of death was determined compared to three groups of untreated controls to provide percent increase in lifespan (ILS). ILS values of greater than or equal to 40 percent represent actual reduction in tumor cell burden during the course of treatment and are taken as indications of biologically significant antitumor effect.

[1] = system: highly metastatic subline (F10) of B16 melanoma; experiment: Antiproliferative effects on tumor cells growing in tissue culture; type: cell-based; conditions: continuous exposure; read-out: concentration that inhibited proliferation by 50 percent
Description: Compound I was also tested for antiproliferative effects on tumor cells growing in tissue culture.

[2] = Side effects and mortality, intraperitoneal administration to mice; type: in vivo; conditions: for Mortality: on day after administration
Description: Doses up to 50 mg/kg administered intraperitoneally to mice have no effect. […] Mortality at 100 mg/kg=2/10 on day after administration, at 200 mg/kg=2/4 also on day after administration.

[3] = 100 mg/kg and above intraperitoneally

## CC(C)=C[C@H]1C[C@H](C)[C@H]2CC[C@H](C)c3c(O[C@@H]4OC[C@@H](O)[C@H](O)[C@H]4O)c(O)c(C)c1c32 [Compound I, pseudopterosin A]
Sea urchin sperm
  inhibition of sperm motility: totally inhibits
B16 melanoma; 6.48 mg/kg ip
  Increase to Lifespan: -2%
  Median Survival Time: 21.5 days
  Weight Change on Day 9: +1.2 gm
B16 melanoma; 10.8 mg/kg ip
  Increase to Lifespan: -7%
  Median Survival Time: 20.5 days
  Weight Change on Day 9: +1.0 gm
B16 melanoma; 18 mg/kg ip
  Increase to Lifespan: -2%
  Median Survival Time: 21.5 days
  Weight Change on Day 9: +0.9 gm
B16 melanoma; 30 mg/kg ip
  Increase to Lifespan: 11%
  Median Survival Time: 24.5 days
  Weight Change on Day 9: +0.5 gm
B16 melanoma; 50 mg/kg ip
  Increase to Lifespan: -4%
  Median Survival Time: 21 days
  Weight Change on Day 9: -0.4 gm
B16 melanoma; B16 melanoma
  antitumor activity: did not demonstrate significant antitumor activity
P388 leukemia; Group 2, 7.9 mg/kg ip
  Increase to Lifespan: 10%
  Median Survival Time: 11 days
  Weight Change Day 5: +1.1 gm
  Weight Change Day 9: +3.6 gm
P388 leukemia; Group 2, 11.9 mg/kg ip
  Increase to Lifespan: 15%
  Median Survival Time: 11.5 days
  Weight Change Day 5: +0.7 gm
  Weight Change Day 9: +2.5 gm
P388 leukemia; Group 2, 17.8 mg/kg ip
  Increase to Lifespan: 15%
  Median Survival Time: 11.5 days
  Weight Change Day 5: 0 gm
  Weight Change Day 9: +2.8 gm
P388 leukemia; Group 2, 26.7 mg/kg ip
  Increase to Lifespan: 25%
  Median Survival Time: 12.5 days
  Weight Change Day 5: -0.7 gm
  Weight Change Day 9: +3.4 gm
P388 leukemia; Group 2, 40 mg/kg ip
  Increase to Lifespan: 30%
  Median Survival Time: 13 days
  Weight Change Day 5: -2.1 gm
  Weight Change Day 9: +2.2 gm
P388 leukemia; Group 2, 60 mg/kg ip
  Increase to Lifespan: 65%
  Median Survival Time: 16.5 days
  Weight Change Day 5: -3.2 gm
  Weight Change Day 9: -0.5 gm
P388 leukemia; Group I, 1.5 mg/kg ip
  Increase to Lifespan: 27%
  Median Survival Time: 14 days
  Weight Change Day 5: +0.1 gm
  Weight Change Day 9: +4.6 gm
P388 leukemia; Group I, 3 mg/kg ip
  Increase to Lifespan: 27%
  Median Survival Time: 14 days
  Weight Change Day 5: +0.4 gm
  Weight Change Day 9: +4.2 gm
P388 leukemia; Group I, 6 mg/kg ip
  Increase to Lifespan: 36%
  Median Survival Time: 15 days
  Weight Change Day 5: +0.7 gm
  Weight Change Day 9: +2.9 gm
P388 leukemia; Group I, 12 mg/kg ip
  Increase to Lifespan: 45%
  Median Survival Time: 16 days
  Weight Change Day 5: -2.6 gm
  Weight Change Day 9: +1.3 gm
P388 leukemia; Group I, 24 mg/kg ip
  Increase to Lifespan: 82%
  Median Survival Time: 20 days
  Weight Change Day 5: +0.4 gm
  Weight Change Day 9: -0.6 gm
P388 leukemia; a daily dose in this range, from weight loss
  maximally tolerated dose: ~60 mg/kg/day
P388 leukemia; mouse, in vivo, ip
  activity in mice bearing intraperitoneal P388 leukemia: demonstrated reproducible activity
P388 leukemia; second group, 60 mg/kg/day
  activity in mice bearing intraperitoneal P388 leukemia: significant activity
P388 leukemia; second group, dose similar to 24 mg/kg/day
  activity in mice bearing intraperitoneal P388 leukemia: ineffective
[1]
  pIC50: 4.38
[2]; [3]
  return to normal activity: ≤ 30 min
  side effects: mild excitation and writhing in some animals
[2]; 100 mg/kg
  Mortality: 2/10
[2]; 200 mg/kg
  Mortality: 2/4
[2]; up to 50 mg/kg intraperitoneally
  side effects: no effect
